Assay results: patent publication US10376520B2, “Methods for the treatment of cardiovascular disorders” (Galapagos NV, priority 2015, dated 2019)

System: RA patients
Test: Atherogenic index, Study 2 (RA patients, monotherapy)
Assay type: in vivo, human
Procedure: As used herein, the term ‘atherogenic index’ refers to
Double-blind, placebo-controlled, monotherapy study in subjects with moderately to severely active RA who have an inadequate response to methotrexate (MTX) (oral or parenteral).
Twelve weeks of treatment with Compound 1 (dosed as a [Compound 1:HCl:3H2O]) at 50 mg, 100 mg, or 200 mg q.d.; or placebo. At Week 12, all subjects on placebo and the subjects on the 50 mg dose who have not achieved 20% improvement in swollen joint count (SJC66) and tender joint count (TJC68) will be assigned to 100 mg q.d. in a blinded fashion and will continue treatment until Week 24. Subjects in the other groups will maintain their randomized treatment until Week 24.
The atherogenic index has been identified to be a good predictor of cardiovascular disorders risks and is calculated as follows: […]

[1] = Placebo switching to 100 mg q.d., week 16
[2] = Placebo switching to 100 mg q.d., week 20
[3] = Placebo switching to 100 mg q.d., week 24

O=C(Nc1nc2cccc(-c3ccc(CN4CCS(=O)(=O)CC4)cc3)n2n1)C1CC1 [Compound 1, cyclopropanecarboxylic acid {5-[4-(1,1-dioxo-thiomorpholin-4-ylmethyl)-phenyl]-[1,2,4]triazolo[1,5-a]pyridin-2yl}-amide]
Atherogenic index Median CFB - 12 weeks results (100 mg q.d., week 4): -0.10 mmol/L | Atherogenic index Median CFB - 24 weeks results (100 mg q.d., week 4): -0.10 mmol/L | Atherogenic index Median percentage CFB - 12 weeks results (100 mg q.d., week 4): −3.65% | Atherogenic index Median percentage CFB - 24 weeks results (100 mg q.d., week 4): −3.65% | Atherogenic index Mean CFB - 12 weeks results (100 mg q.d., week 8): -0.13 mmol/L | Atherogenic index Mean percentage CFB - 12 weeks results (100 mg q.d., week 8): −3.37% | Atherogenic index Mean percentage CFB - 24 weeks results (100 mg q.d., week 8): −3.37% | Atherogenic index Median CFB - 12 weeks results (100 mg q.d., week 8): -0.10 mmol/L | Atherogenic index Median CFB - 24 weeks results (100 mg q.d., week 8): -0.10 mmol/L | Atherogenic index Median percentage CFB - 24 weeks results (100 mg q.d., week 8): −1.45% | Atherogenic index Mean CFB - 12 weeks results (100 mg q.d., week 12): -0.07 mmol/L | Atherogenic index Mean percentage CFB - 24 weeks results (100 mg q.d., week 12): −1.37% | Atherogenic index Median CFB - 12 weeks results (100 mg q.d., week 12): -0.10 mmol/L | Atherogenic index Median CFB - 24 weeks results (100 mg q.d., week 12): -0.10 mmol/L | Atherogenic index Median percentage CFB - 12 weeks results (100 mg q.d., week 12): −2.78% | Atherogenic index Median percentage CFB - 24 weeks results (100 mg q.d., week 12): −2.78% | Atherogenic index Mean percentage CFB - 24 weeks results (100 mg q.d., week 16): −4.43% | Atherogenic index Median CFB - 24 weeks results (100 mg q.d., week 16): -0.20 mmol/L | Atherogenic index Median percentage CFB - 24 weeks results (100 mg q.d., week 16): −4.76% | Atherogenic index Mean percentage CFB - 24 weeks results (100 mg q.d., week 20): −2.50% | Atherogenic index Median CFB - 24 weeks results (100 mg q.d., week 20): 0.00 mmol/L | Atherogenic index Median percentage CFB - 24 weeks results (100 mg q.d., week 20): 0.00% | Atherogenic index Mean percentage CFB - 24 weeks results (100 mg q.d., week 24): −0.41% | Atherogenic index Median CFB - 24 weeks results (100 mg q.d., week 24): 0.00 mmol/L | Atherogenic index Median percentage CFB - 24 weeks results (100 mg q.d., week 24): 0.00% | Atherogenic index Mean CFB - 12 weeks results (200 mg q.d., week 1): 0.15 mmol/L | Atherogenic index Mean percentage CFB - 12 weeks results (200 mg q.d., week 1): 4.43% | Atherogenic index Mean percentage CFB - 24 weeks results (200 mg q.d., week 1): 4.43% | Atherogenic index Median CFB - 12 weeks results (200 mg q.d., week 1): 0.10 mmol/L | Atherogenic index Median CFB - 24 weeks results (200 mg q.d., week 1): 0.10 mmol/L | Atherogenic index Median percentage CFB - 12 weeks results (200 mg q.d., week 1): 1.96% | Atherogenic index Median percentage CFB - 24 weeks results (200 mg q.d., week 1): 1.96% | Atherogenic index Mean CFB - 12 weeks results (200 mg q.d., week 2): -0.09 mmol/L | Atherogenic index Mean percentage CFB - 12 weeks results (200 mg q.d., week 2): −2.14% | Atherogenic index Mean percentage CFB - 24 weeks results (200 mg q.d., week 2): −2.14% | Atherogenic index Median CFB - 12 weeks results (200 mg q.d., week 2): 0.00 mmol/L | Atherogenic index Median CFB - 24 weeks results (200 mg q.d., week 2): 0.00 mmol/L | Atherogenic index Median percentage CFB - 12 weeks results (200 mg q.d., week 2): 0.00% | Atherogenic index Median percentage CFB - 24 weeks results (200 mg q.d., week 2): 0.00% | Atherogenic index Mean CFB - 12 weeks results (200 mg q.d., week 4): -0.18 mmol/L | Atherogenic index Mean percentage CFB - 12 weeks results (200 mg q.d., week 4): −3.89% | Atherogenic index Mean percentage CFB - 24 weeks results (200 mg q.d., week 4): −3.89% | Atherogenic index Median CFB - 12 weeks results (200 mg q.d., week 4): -0.10 mmol/L | Atherogenic index Median CFB - 24 weeks results (200 mg q.d., week 4): -0.10 mmol/L | Atherogenic index Median percentage CFB - 12 weeks results (200 mg q.d., week 4): −3.65% | Atherogenic index Median percentage CFB - 24 weeks results (200 mg q.d., week 4): −3.65% | Atherogenic index Mean CFB - 12 weeks results (200 mg q.d., week 8): -0.16 mmol/L | Atherogenic index Mean percentage CFB - 12 weeks results (200 mg q.d., week 8): −3.33% | Atherogenic index Mean percentage CFB - 24 weeks results (200 mg q.d., week 8): −3.33% | Atherogenic index Median CFB - 12 weeks results (200 mg q.d., week 8): -0.10 mmol/L | Atherogenic index Median CFB - 24 weeks results (200 mg q.d., week 8): -0.10 mmol/L | Atherogenic index Median percentage CFB - 12 weeks results (200 mg q.d., week 8): −3.33% | Atherogenic index Median percentage CFB - 24 weeks results (200 mg q.d., week 8): −3.33% | Atherogenic index Mean CFB - 12 weeks results (200 mg q.d., week 12): -0.04 mmol/L | Atherogenic index Mean percentage CFB - 12 weeks results (200 mg q.d., week 12): 0.54% | Atherogenic index Mean percentage CFB - 24 weeks results (200 mg q.d., week 12): 0.54% | Atherogenic index Median CFB - 12 weeks results (200 mg q.d., week 12): 0.00 mmol/L | Atherogenic index Median CFB - 24 weeks results (200 mg q.d., week 12): 0.00 mmol/L | Atherogenic index Median percentage CFB - 12 weeks results (200 mg q.d., week 12): 0.00% | Atherogenic index Median percentage CFB - 24 weeks results (200 mg q.d., week 12): 0.00% | Atherogenic index Mean percentage CFB - 24 weeks results (200 mg q.d., week 16): 0.42% | Atherogenic index Median CFB - 24 weeks results (200 mg q.d., week 16): 0.00 mmol/L | Atherogenic index Median percentage CFB - 24 weeks results (200 mg q.d., week 16): 0.00% | Atherogenic index Mean percentage CFB - 24 weeks results (200 mg q.d., week 20): −1.40% | Atherogenic index Median CFB - 24 weeks results (200 mg q.d., week 20): -0.20 mmol/L | Atherogenic index Median percentage CFB - 24 weeks results (200 mg q.d., week 20): −3.77% | Atherogenic index Mean percentage CFB - 24 weeks results (200 mg q.d., week 24): 0.92% | Atherogenic index Median CFB - 24 weeks results (200 mg q.d., week 24): -0.10 mmol/L | Atherogenic index Median percentage CFB - 24 weeks results (200 mg q.d., week 24): −2.58% | Atherogenic index Mean percentage CFB - 24 weeks results [1]: −6.56% | Atherogenic index Median CFB - 24 weeks results [1]: -0.20 mmol/L | Atherogenic index Median percentage CFB - 24 weeks results [1]: −5.40% | Atherogenic index Mean percentage CFB - 24 weeks results [2]: −5.24% | Atherogenic index Median CFB - 24 weeks results [2]: -0.30 mmol/L | Atherogenic index Median percentage CFB - 24 weeks results [2]: −7.87% | Atherogenic index Mean percentage CFB - 24 weeks results [3]: −3.22% | Atherogenic index Median CFB - 24 weeks results [3]: -0.10 mmol/L | Atherogenic index Median percentage CFB - 24 weeks results [3]: −3.57%
